# Patent publication US4316958A, “Process for producing optically active cephalosporin analogs” (Kyowa Hakko Kogyo Co., Ltd., priority 1979, dated 1982)
# Read-outs that look alike come from different tables or passages of the source.
# How the values were obtained:
# Assay type in all cases: cell-based
# [1] = tested on: Staphylococcus aureus Smith; test: Heart Infusion Agar Dilution Method, antimicrobial activity (MIC)
# Source text: (§1) Heart Infusion Agar Dilution Method (pH 7.2) is used. A cephalosporin compound having the same acyl side chain corresponding to the dl-compound is used as a control. The compounds are identified as follows.
# Proteus mirabilis 1287 = test: as above; settings: Proteus mirabilis, 1287, pH 7.2, Proteus mirabilis 1287
# Source text: as §1, with “Antimicrobial activities of the compounds obtained in Reference Examples 1 and 2 are as follows. Heart” for “Heart”
# Serratia marcescens T-26 = test: as above
# Source text: as §1, with “Antimicrobial activities of the compounds obtained in Reference Examples 1 and 2 are as follows. Heart” for “Heart”
# [2] = tested on: Pseudomonas aeruginosa #1; test: as above
# Source text: as §1, with “Antimicrobial activities of the compounds obtained in Reference Examples 1 and 2 are as follows. Heart” for “Heart”
# Proteus rettgeri KY 4289 = test: as above; settings: Providencia rettgeri, KY4289, pH 7.2
# Source text: as §1, with “Antimicrobial activities of the compounds obtained in Reference Examples 1 and 2 are as follows. Heart” for “Heart”
# Proteus vulgaris 6897 = test: as above; settings: Proteus vulgaris, 6897, pH 7.2, Proteus vulgaris 6897
# Source text: as §1, with “Antimicrobial activities of the compounds obtained in Reference Examples 1 and 2 are as follows. Heart” for “Heart”
# [3] = tested on: Klebsiella pneumoniae 8045; test: as above; settings: Klebsiella pneumoniae, 8045, pH 7.2, Klebsiella pneumoniae 8045
# Source text: as §1, with “Antimicrobial activities of the compounds obtained in Reference Examples 1 and 2 are as follows. Heart” for “Heart”
# [4] = tested on: Klebsiella pneumoniae Y-60; test: as above
# Source text: as §1, with “Antimicrobial activities of the compounds obtained in Reference Examples 1 and 2 are as follows. Heart” for “Heart”
# Escherichia coli NIHJC-2 = test: as above
# Source text: as §1, with “Antimicrobial activities of the compounds obtained in Reference Examples 1 and 2 are as follows. Heart” for “Heart”
# Serratia marcescens T-55 = test: as above
# Source text: as §1, with “Antimicrobial activities of the compounds obtained in Reference Examples 1 and 2 are as follows. Heart” for “Heart”
# [5] = tested on: Escherichia coli GN2411-5; test: as above
# Source text: as §1, with “Antimicrobial activities of the compounds obtained in Reference Examples 1 and 2 are as follows. Heart” for “Heart”
# [6] = tested on: Staphylococcus aureus 209-P; test: as above
# Source text: as §1, with “Antimicrobial activities of the compounds obtained in Reference Examples 1 and 2 are as follows. Heart” for “Heart”
# Escherichia coli Juhl = test: as above
# Source text: as §1, with “Antimicrobial activities of the compounds obtained in Reference Examples 1 and 2 are as follows. Heart” for “Heart”
# Proteus morganii KY 4298 = test: as above
# Source text: as §1, with “Antimicrobial activities of the compounds obtained in Reference Examples 1 and 2 are as follows. Heart” for “Heart”
# [7] = antimicrobial activity (stated in words)
# Source text: as §1, with “Antimicrobial activities of the compounds obtained in Reference Examples 1 and 2 are as follows. Heart” for “Heart”
# [8] = tested on: Pseudomonas aeruginosa 145; test: Heart Infusion Agar Dilution Method, antimicrobial activity (MIC); settings: Pseudomonas aeruginosa, 145, pH 7.2, Pseudomonas aeruginosa 145
# Source text: as §1, with “Antimicrobial activities of the compounds obtained in Reference Examples 1 and 2 are as follows. Heart” for “Heart”
# Pseudomonas putida 264 = test: as above
# Source text: as §1, with “Antimicrobial activities of the compounds obtained in Reference Examples 1 and 2 are as follows. Heart” for “Heart”
# [9] = tested on: Staphylococcus epidermidis; test: as above; settings: pH 7.2
# Source text: as §1
# [10] = Serratia marcescens T-55, pH 7.2
# [11] = Staphylococcus aureus 209-P, pH 7.2
# [12] = Morganella morganii, KY4298, pH 7.2, Proteus morganii KY 4298, read-out: MIC
# [13] = Serratia marcescens, T26, pH 7.2, Serratia marcescens T-26, read-out: MIC
# [14] = Pseudomonas aeruginosa, pH 7.2, Pseudomonas aeruginosa #1, read-out: MIC
# [15] = Klebsiella pneumoniae, Y60, pH 7.2, Klebsiella pneumoniae Y-60, read-out: MIC
# [16] = Escherichia coli, NIHJC2, pH 7.2, Escherichia coli NIHJC-2, read-out: MIC
# [17] = Escherichia coli, GN2411, pH 7.2, Escherichia coli GN2411-5, read-out: MIC
# [18] = Escherichia coli, pH 7.2, Escherichia coli Juhl, read-out: MIC
SMILES,MIC (Proteus mirabilis 1287),MIC (Proteus rettgeri KY 4289),MIC (Proteus vulgaris 6897),MIC [3],MIC (Serratia marcescens T-55; [10]),"MIC [6, 11]",MIC (Proteus morganii KY 4298; [12]),antimicrobial activity [7],MIC (Serratia marcescens T-26; [13]),"MIC [2, 14]",MIC [8],"MIC [4, 15]",MIC (Escherichia coli NIHJC-2; [16]),"MIC [5, 17]",MIC (Escherichia coli Juhl; [18]),also measured
"CO/N=C(\C(=O)N[C@@H]1C(=O)N2C(C(=O)O)=CCC[C@H]12)c1csc(N)n1 [A, (+)-cis-7-[2-(2-amino-4-thiazolyl)-2-syn-methoxyiminoacetamido]-1-azabicyclo[4,2,0]oct-2-en-8-on-2-carboxylic acid]",0.01 µg/mL,≤ 0.006 µg/mL,≤ 0.006 µg/mL,≤ 0.006 µg/mL,0.02 µg/mL,3.12 µg/mL,0.05 µg/mL,strong antimicrobial activity,,,,,,,,"MIC ([1]; Staphylococcus aureus Smith, pH 7.2): 6.25 µg/mL; MIC (Serratia marcescens T-26; Serratia marcescens T-26, pH 7.2): 0.2 µg/mL; MIC ([2]; Pseudomonas aeruginosa #1, pH 7.2): 6.25 µg/mL; MIC ([4]; Klebsiella pneumoniae Y-60, pH 7.2): 0.02 µg/mL; MIC (Escherichia coli NIHJC-2; Escherichia coli NIHJC-2, pH 7.2): 0.02 µg/mL; MIC ([5]; Escherichia coli GN2411-5, pH 7.2): 0.01 µg/mL; MIC (Escherichia coli Juhl; Escherichia coli Juhl, pH 7.2): 0.02 µg/mL"
"CO/N=C(\C(=O)N[C@@H]1C(=O)N2C(C(=O)O)=C[C@@H](C)C[C@H]12)c1csc(N)n1 [B, (-)-cis-7β-[2-(2-amino-4-thiazolyl)-2-syn-methoxyiminoacetamido]-4α-methyl-1-azabicyclo[4,2,0]oct-2-en-8-on-2-carboxylic acid]",≤ 0.01 µg/mL,≤ 0.01 µg/mL,≤ 0.01 µg/mL,≤ 0.01 µg/mL,0.05 µg/mL,1.56 µg/mL,,strong antimicrobial activity,0.4 µg/mL,25 µg/mL,100 µg/mL,0.02 µg/mL,0.02 µg/mL,≤ 0.01 µg/mL,0.02 µg/mL,"MIC ([1]; Staphylococcus aureus, pH 7.2, Staphylococcus aureus Smith, read-out: MIC): 6.25 µg/mL; MIC (Pseudomonas putida 264; Pseudomonas putida 264, pH 7.2): 0.05 µg/mL; MIC (Proteus morganii KY 4298; Proteus morganii KY 4298, pH 7.2): 0.02 µg/mL"
"CO/N=C(\C(=O)N[C@@H]1C(=O)N2C(C(=O)O)=C(COC(C)=O)CS[C@H]12)c1csc(N)n1 [C, reference compound]",0.02 µg/mL,≤ 0.01 µg/mL,≤ 0.01 µg/mL,≤ 0.01 µg/mL,,,0.05 µg/mL,,0.78 µg/mL,6.25 µg/mL,50 µg/mL,0.05 µg/mL,0.1 µg/mL,0.05 µg/mL,0.05 µg/mL,"MIC ([1]; Staphylococcus aureus Smith, pH 7.2, read-out: MIC): 1.56 µg/mL; MIC [9]: 1.56 µg/mL; MIC (Pseudomonas putida 264; Pseudomonas putida, 264, pH 7.2, Pseudomonas putida 264, read-out: MIC): 0.1 µg/mL; MIC (Serratia marcescens T-55; Serratia marcescens, T55, pH 7.2, Serratia marcescens T-55, read-out: MIC): 0.1 µg/mL; MIC ([6]; Staphylococcus aureus, 209P, pH 7.2, Staphylococcus aureus 209-P, read-out: MIC): 0.78 µg/mL"
